Data taken from patent US9428507B2, “Compounds for the treatment of malaria” (The Broad Institute, Inc., priority 2013, dated 2016).
Read-outs that look alike come from different tables or passages of the source.

Test system: Dd2 strain of P. falciparum
Experiment: Activity against the Dd2 strain of P. falciparum (SYBR Green I, 72-h incubation)
Type: cell-based
Details: read-out: EC^50 Dd2
Summary of the method: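 SYBR Green I signal (ex 485, em 530 nm) measured growth, read after 24 h dark staining in saponin/Triton lysis buffer. Before that, compound-exposed Dd2 cultures (1% parasitemia, 1.0% hematocrit, 0.125% DMSO) grew 72 h at 37° C in low-oxygen gas. Background control: 20 μM mefloquine.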

[1] = Plasmodium falciparum, DD2, 72 h

| SMILES | EC50 [1] | EC50 |
| --- | --- | --- |
| COc1ccc2c3c([nH]c2c1)[C@H](CO[Si](C)(C)C(C)(C)C)N(C(C)=O)CC31CCN(C(=O)OC(C)(C)C)CC1 [Compound 29, (R)-tert-butyl 2′-acetyl-1′-(((tert-butyldimethylsilyl)oxy)methyl)-7′-methoxy-1′,2′,3′,9′-tetrahydrospiro[piperidine-4,4′-pyrido[3,4-b]indole]-1-carboxylate] |  | 1390 nM |
| COc1ccc2c3c(n(C)c2c1)[C@H](CO)NCC31CCN(CC2CCCC2)CC1 [Compound 91, (R)-(1-(cyclopentylmethyl)-7′-methoxy-9′-methyl-1′,2′,3′,9′-tetrahydrospiro[piperidine-4,4′-pyrido[3,4-b]indol]-1′-yl)methanol] | 481 nM |  |
| COc1ccc2c3c(n(C)c2c1)[C@H](CO)N(CC1CCOCC1)CC31CCN(Cc2nccs2)CC1 [Compound 112, (R)-(7′-methoxy-9′-methyl0-2′-((tetrahydro-2H-pyran-4-yl)methyl)-1-(thiazol-2-ylmethyl)-1′,2′,3′,9′-tetrahydrospiro [piperidine-4,4′-pyrido [3,4-b]indol]-1′-yl) methanol] | 1100 nM |  |
| COc1ccc2c3c([nH]c2c1)[C@H](CO[Si](C)(C)C(C)(C)C)N(C(C)=O)CC31CCNCC1 [Compound 25, (R)-1-(1′-(((tert-butyldimethylsilyl)oxy)methyl)-7′-methoxyspiro[piperidine-4,4′-pyrido[3,4-b]indol]-2′(1′H,3′H,9′H)-yl)ethanone] | 1620 nM |  |
| COc1ccc2c3c([nH]c2c1)[C@H](CO)N(C(=O)Cc1ccccc1)CC31CCN(C(=O)Nc2ccccc2F)CC1 [Compound 12] |  | 246 to 291 nM |

Continued, in another order:

| EC50 [1] | SMILES | EC50 |
| --- | --- | --- |
| 120 to 303 nM | COc1ccc2c3c([nH]c2c1)C(C)(C)N(C(C)=O)CC31CCN(C(=O)Nc2ccccc2F)CC1 [Compound 2, 2′-acetyl-N-(2-fluorophenyl)-7′ -methoxy-1′,1′-dimethyl-1′,2′,3′,9′-tetrahydrospiro [piperidine-4,4′-pyrido[3,4-b]indole]-1-carboxamide] |  |
| 7240 nM | COc1ccc2c3c([nH]c2c1)[C@H](CO)N(CCCc1ccccc1)CC31CCN(C(=O)Nc2ccccc2F)CC1 [Compound 71, (R)-N-(2-fluorophenyl)-1′-(hydroxymethyl)-7′-methoxy-2′-(3-phenylpropy1)-1′,2′,3′,9′-tetrahydrospiro[piperidine-4,4′-pyrido[3,4-b]indole]-1-carboxamide] |  |
| 96 nM | COc1ccc(NC(=O)N2CCC3(CC2)CN(C(=O)C2CCC2)[C@H](CO)c2c3c3ccc(OC)cc3n2C)cc1 [Compound 86, (S)-2′-(cyclobutanecarbonyl)-1′-(hydroxymethyl)-7′-methoxy-N-(4-methoxyphenyl)-9′-methyl-1′,2′,3′,9′-tetrahydrospiro [piperidine-4,4′-pyrido[3,4-b]indole]-1-carboxamide] |  |
| 1750 to 1900 nM | COc1ccc2c3c([nH]c2c1)[C@H](CO)N(CCc1ccccc1)CC31CCN(C(=O)Nc2ccccc2F)CC1 [Compound 42, (R)-N-(2-fluorophenyl)-1′-(hydroxymethyl)-7′-methoxy-2′-phenethyl-1′,2′,3′,9′-tetrahydrospiro[piperidine-4,4′-pyrido[3,4-b]indole]-1-carboxamide] |  |
